# Where two headings read alike, the source gives them in different places.
# Target: T1, glutathione-S-transferase-labeled FXR human protein (Homo sapiens, UniProt Q96RI1)
# T1 construct: purchased Invitrogen
# T1 sequence (Q96RI1 1-486): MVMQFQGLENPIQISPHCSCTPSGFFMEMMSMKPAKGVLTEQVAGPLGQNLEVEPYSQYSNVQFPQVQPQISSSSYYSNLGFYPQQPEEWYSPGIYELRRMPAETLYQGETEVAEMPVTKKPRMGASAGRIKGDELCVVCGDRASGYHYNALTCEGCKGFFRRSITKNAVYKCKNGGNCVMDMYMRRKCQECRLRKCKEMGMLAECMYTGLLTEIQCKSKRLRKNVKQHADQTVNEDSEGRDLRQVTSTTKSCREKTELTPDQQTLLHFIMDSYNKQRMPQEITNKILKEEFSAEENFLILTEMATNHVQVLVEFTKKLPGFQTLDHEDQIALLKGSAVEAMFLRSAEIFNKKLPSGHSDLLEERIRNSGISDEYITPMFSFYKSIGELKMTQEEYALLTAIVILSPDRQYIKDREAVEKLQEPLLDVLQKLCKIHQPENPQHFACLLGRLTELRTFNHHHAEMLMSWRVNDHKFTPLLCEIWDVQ
# Experiment: FXR biochemical experiment (alphascreen, coactivator recruitment)
# Details: for EC50: alphascreen, activation of FXR binding reaction with steroid receptor coactivator, read-out: FXR enzyme activity EC50; for Emax: read-out: FXR enzyme activity Efficacy (activation efficacy percent)
# Protocol: FXR Biochemical Experiment
# To test the effect of the compound on the activation of the FXR binding reaction by a Homogenous Proximity Luminescent Amplified Assay (alphascreen).
# 1. Protein: glutathione-S-transferase-labeled FXR human protein (Invitrogen)
# 2. Coactivator: biotin-labeled steroid receptor coactivator (Anaspec)
# 3. Detection reagent: Homogenous Proximity Luminescent Amplified Assay (alphascreen) detection kit (PerkinElmer)
# 1. Dilution of compounds: The test compound was prepared as a 40 μM DMSO solution, which was then diluted 3-fold to 10 concentration points. The reference compound was prepared as a 400 μM DMSO solution, and then was 1.5-fold diluted to 10 concentration points. The diluted DMSO solution was added to the micro-wells of a 384-well plate at a volume of 150 nl per well.
# 2. Glutathione-S-transferase-labeled FXR human protein and biotin-labeled steroid receptor coactivator were prepared to a mixed solution at a concentration of 0.4 nM and 30 nM, respectively. The mixed solution was added to the micro-wells of the 384-well plate at a volume of 15 μL per well, and incubated for 1 hour at room temperature.
# 3. […] The experiment process was protected from light. It was incubated for 1 hour at room temperature.
# 4. […] The experiment process was protected from light. It was incubated for 1 hour at room temperature.
# 5. EC50 test: Envision was used to excite at 680 nm and the […] signal at 520-620 nm was read.
# 6. Data analysis: Data analysis was conducted using Prism 5.0 to calculate the EC50 value of the activation effect of the compound.
# [1] = highest signal relative to reference compound chenodeoxycholic acid (Examples 1-30)
# [2] = highest signal relative to reference compound obeticholic acid (Examples 31-47)
SMILES,EC50,FXR enzyme activity Efficacy (activation efficacy percent) [1],Emax [1],Emax [2]
O=C(O)c1cccc(CN2C(=O)C3(CC3)c3cc(OCc4c(-c5c(Cl)cccc5Cl)noc4C4CC4)ccc32)c1 [Compound 1],200 nM,,156%,
O=C(O)c1ccc(CN2C(=O)C3(CC3)c3cc(OCc4c(-c5c(Cl)cccc5Cl)noc4C4CC4)ccc32)cc1 [Compound 2],290 nM,,155%,
O=C(O)c1ccc(N2C(=O)C3(CC3)c3cc(OCc4c(-c5c(Cl)cccc5Cl)noc4C4CC4)ccc32)nc1 [Compound 3],180 nM,,165%,
O=C(O)c1ccc(N2C(=O)C3(CC3)c3cc(OCc4c(-c5c(Cl)cccc5Cl)noc4C4CC4)ccc32)cc1 [Compound 6],100 nM,,169%,
Cc1sc(N2C(=O)C3(CC3)c3cc(OCc4c(-c5c(Cl)cccc5Cl)noc4C4CC4)ccc32)nc1C(=O)O [Compound 8],820 nM,,35%,
O=C(O)c1ccc(N2C(=O)C3(CC3)c3cc(OCc4c(-c5c(Cl)cccc5Cl)noc4C4CC4)ccc32)cc1F [Compound 10],1030 nM,,312%,
O=C(O)c1ccc(N2C(=O)C3(CC3)c3ccc(OCc4c(-c5c(Cl)cccc5Cl)noc4C4CC4)cc32)cc1 [Compound 12],1760 nM,,33%,
CC1(C)C(=O)N(Cc2cccc(C(=O)O)c2)c2ccc(OCc3c(-c4c(Cl)cccc4Cl)noc3C3CC3)cc21 [Compound 14],200 nM,,136%,
CC1(C)C(=O)N(c2cccc(C(=O)O)c2)c2ccc(OCc3c(-c4c(Cl)cccc4Cl)noc3C3CC3)cc21 [Compound 15],230 nM,,152%,
O=C(O)C1CC=C(N2C(=O)C3(CC3)c3cc(OCc4c(-c5c(Cl)cccc5Cl)noc4C4CC4)ccc32)CC1 (stereo not drawn) [Compound 18],660 nM,,142%,
O=C(O)C12CC(CN3C(=O)C4(CC4)c4cc(OCc5c(-c6c(Cl)cccc6Cl)noc5C5CC5)ccc43)(C1)C2 [Compound 19],2560 nM,,95%,
O=C(O)c1ccc(N2C(=O)C3(CC3)c3cc(OCc4c(-c5ccccc5OC(F)(F)F)noc4C4CC4)ccc32)cc1 [Compound 28],650 nM,,186%,
O=C(O)c1ccc(N2C(=O)CCc3cc(OCc4c(-c5c(Cl)cccc5Cl)noc4C4CC4)ccc32)cc1 [Compound 33],143 nM,,,127%
O=C(O)c1ccc(N2C(=O)CCc3cc(OCc4c(-c5c(Cl)cccc5Cl)noc4C4CC4)ccc32)c(F)c1 [Compound 34],127 nM,,,140%
O=C(O)c1cnc(N2C(=O)CCc3cc(OCc4c(-c5c(Cl)cccc5Cl)noc4C4CC4)ccc32)s1 [Compound 38],140 nM,,,118%
O=C(O)c1ccc(N2C(=O)CCc3cc(OCc4c(-c5c(Cl)cccc5Cl)noc4C4CC4)ccc32)nc1 [Compound 40],58 nM,,,117%
COc1cc(C(=O)O)ccc1N1C(=O)CCc2cc(OCc3c(-c4c(Cl)cccc4Cl)noc3C3CC3)ccc21 [Compound 44],58 nM,,,117%
O=C(O)c1ccc(N2C(=O)CCc3cc(OCc4c(-c5c(Cl)cccc5Cl)noc4C4CC4)ccc32)cc1O [Compound 47],20 nM,,,153%

# Further compounds by falling EC50, results first:
EC50,FXR enzyme activity Efficacy (activation efficacy percent) [1],Emax [1],Emax [2],SMILES
6430 nM,,21%,,O=C(O)c1ccccc1N1C(=O)C2(CC2)c2cc(OCc3c(-c4c(Cl)cccc4Cl)noc3C3CC3)ccc21 [Compound 26]
3390 nM,,151%,,O=C(O)CCCN1C(=O)C2(CC2)c2cc(OCc3c(-c4c(Cl)cccc4Cl)noc3C3CC3)ccc21 [Compound 16]
1880 nM,,169%,,O=C(O)CCN1C(=O)C2(CC2)c2cc(OCc3c(-c4c(Cl)cccc4Cl)noc3C3CC3)ccc21 [Compound 17]
1560 nM,,229%,,COc1cc(N2C(=O)C3(CC3)c3cc(OCc4c(-c5c(Cl)cccc5Cl)noc4C4CC4)ccc32)ccc1C(=O)O [Compound 9]
1530 nM,,228%,,O=C(O)c1ccc(N2C(=O)C3(CC3)c3cc(OCc4c(-c5c(Cl)cccc5Cl)noc4C4CC4)cnc32)cc1 [Compound 30]
950 nM,96%,,,"O=C(O)C1CCC(CN2C(=O)C3(CC3)c3cc(OCc4c(-c5c(Cl)cccc5Cl)noc4C4CC4)ccc32)CC1 (single isomer, unassigned) [Compound 21]"
830 nM,169%,,,"O=C(O)C1CCC(CN2C(=O)C3(CC3)c3cc(OCc4c(-c5c(Cl)cccc5Cl)noc4C4CC4)ccc32)CC1 (single isomer, unassigned) [Compound 20]"
660 nM,,200%,,O=C(O)c1ccc(CN2C(=O)C3(CC3)c3cc(OCc4c(-c5c(Cl)cccc5Cl)noc4C4CC4)ccc32)nc1 [Compound 22]
610 nM,,124%,,O=C(O)c1cncc(N2C(=O)C3(CC3)c3cc(OCc4c(-c5c(Cl)cccc5Cl)noc4C4CC4)ccc32)c1 [Compound 24]
580 nM,,82%,,O=C(O)c1cccc(CN2C(=O)C3(CCCC3)c3cc(OCc4c(-c5c(Cl)cccc5Cl)noc4C4CC4)ccc32)c1 [Compound 11]
560 nM,,211%,,O=C(O)c1ccc(N2C(=O)C3(CC3)c3cc(OCc4c(-c5c(Cl)cncc5Cl)noc4C4CC4)ccc32)cc1 [Compound 29]
444 nM,,,95%,O=C(O)c1cccc(N2C(=O)CCc3cc(OCc4c(-c5c(Cl)cccc5Cl)noc4C4CC4)ccc32)c1 [Compound 41]
410 nM,,130%,,O=C(O)c1ccc(N2C(=O)C3(CC3)c3cc(OCc4c(-c5c(Cl)cccc5Cl)noc4C4CC4)ccc32)cc1Cl [Compound 25]
410 nM,,218%,,O=C(O)c1cc(F)cc(N2C(=O)C3(CC3)c3cc(OCc4c(-c5c(Cl)cccc5Cl)noc4C4CC4)ccc32)c1 [Compound 27]
310 nM,,120%,,O=C(O)c1csc(N2C(=O)C3(CC3)c3cc(OCc4c(-c5c(Cl)cccc5Cl)noc4C4CC4)ccc32)c1 [Compound 23]
240 nM,,144%,,O=C(O)c1cccc(N2C(=O)C3(CC3)c3cc(OCc4c(-c5c(Cl)cccc5Cl)noc4C4CC4)ccc32)c1 [Compound 7]
200 nM,,256%,,Cn1cc(C(=O)O)c2ccc(N3C(=O)C4(CC4)c4cc(OCc5c(-c6c(Cl)cccc6Cl)noc5C5CC5)ccc43)cc21 [Compound 4]
189 nM,,,137%,O=C(O)c1cc(N2C(=O)CCc3cc(OCc4c(-c5c(Cl)cccc5Cl)noc4C4CC4)ccc32)ccc1F [Compound 42]
150 nM,,242%,,O=C(O)c1ccc(N2C(=O)C3(CC3)c3cc(OCc4c(-c5c(Cl)cccc5Cl)noc4C4CC4)ccc32)s1 [Compound 5]
108 nM,,,117%,O=C(O)c1csc(N2C(=O)CCc3cc(OCc4c(-c5c(Cl)cccc5Cl)noc4C4CC4)ccc32)c1 [Compound 45]
90 nM,,163%,,CC1(C)C(=O)N(c2ccc(C(=O)O)cc2)c2ccc(OCc3c(-c4c(Cl)cccc4Cl)noc3C3CC3)cc21 [Compound 13]
83 nM,,,126%,O=C(O)c1ccc(N2C(=O)CCc3cc(OCc4c(-c5c(Cl)cccc5Cl)noc4C4CC4)ccc32)s1 [Compound 46]
69 nM,,,135%,O=C(O)c1ccc(N2C(=O)CCc3cc(OCc4c(-c5c(Cl)cccc5Cl)noc4C4CC4)ccc32)c(Cl)c1 [Compound 36]
43 nM,,,115%,Cn1cc(C(=O)O)c2ccc(N3C(=O)CCc4cc(OCc5c(-c6c(Cl)cccc6Cl)noc5C5CC5)ccc43)cc21 [Compound 31]
35 nM,,,140%,N#Cc1cc(C(=O)O)ccc1N1C(=O)CCc2cc(OCc3c(-c4c(Cl)cccc4Cl)noc3C3CC3)ccc21 [Compound 39]
20 nM,,,153%,Cc1cc(C(=O)O)cnc1N1C(=O)CCc2cc(OCc3c(-c4c(Cl)cccc4Cl)noc3C3CC3)ccc21 [Compound 43]
9 nM,,,161%,O=C(O)c1cnc(N2C(=O)CCc3cc(OCc4c(-c5c(Cl)cccc5Cl)noc4C4CC4)ccc32)c(F)c1 [Compound 35]
